From patent publication US4207326A, “Antimicrobial quaternary pyrazole derivatives” (Cilag-Chemie A.G., priority 1979, dated 1980)
Where two headings read alike, the source gives them in different places.

Legend:
S. aureus = assay: Antibacterial activity: Minimum Inhibitory Concentration; format: cell-based, Staphylococcus aureus ATCC 6538; conditions: 24 hours; for MIC: Staphylococcus aureus
Protocol: (§1) The antimicrobial activity was determined by inoculation of the test microorganism into suitable growth media containing solutions of the compounds at concentrations of 100, 50, 10, 5, 1.0, 0.5 and 0.1 μg/ml. The reference antibiotics used were Gentamicin for the antibacterial tests and Amphotericin B for the antimycotic and antifungal tests. After incubation the antimicrobial activity was recorded as the Minimal Inhibitory Concentration (M.I.C.), i.e., the lowest concentration preventing macroscopically visible growth, for each test compound against each organism.
(§2) An initial solution of each formula (I) compound to be tested in sterile distilled water was prepared at a concentration of 1000 μg/ml. With appropriate dilutions using sterile distilled water, additional solutions were prepared at concentrations of 500, 100, 50, 10, 5 and 1 μg/ml.
(§3) They were cultured and maintained on Tryptone Soy Agar (Oxoid CM 131), with the addition of 10% horse blood for the S. pyogenes.
(§4) To prepare the organisms as inocula for the test, slopes of this medium were streaked with the organisms and incubated at 37° C. for 24 hours. 4.5 Ml volumes of Brian-Heart Infusion Broth (Oxoid CM 225) were then inoculated with a platinum loop from the agar slope cultures and incubated for 24 hours at 37° C. The final inocula were then prepared by adding 0.1 ml aliquots of the Brain-Heart Infusion Broth cultures to 100 ml volumes of sterile physiological saline.
(§5) (a) For the test on each of the bacterial strains and each of the test and reference compounds, a series of 8 tubes containing 4.5 ml volumes of Brain-Heart Infusion Broth (Oxoid CM 225) were prepared. To 7 of these were added 0.5 ml volumes of the final solutions of the test compouns, giving final concentrations in the broths of 100, 50, 10, 5, 1.0, 0.5 and 0.1 μg/ml. To the eighth tube in each series was added 0.5 ml of the solvent used and diluted as for the preparation of the 1000 μg/ml solution of the compound. This tube was used as the growth control. The tubes were inoculated with 0.02 ml aliquots of the inocula prepared in accordance with "(a) Bacteria" above, and incubated at 37° C. for 24 hours. The tubes were then examined for evidence of bacterial growth as shown by turbidity of the medium and the lowest concentration of the test compound which prevented bacterial growth was recorded as the Minimal Inhibitory Concentration. This test procedure was carried out on two separate days.

E. coli = assay: as above; format: cell-based, Escherichia coli ATCC 8739; conditions: 24 hours; for MIC: Escherichia coli
Protocol: as §1, §2, §3, §4, §5

C. albicans = assay: Antimycotic activity: Minimum Inhibitory Concentration; format: cell-based, Candida albicans ATCC 10231; conditions: pH 5.5, 37° C., 72 hours; for Minimum Inhibitory Concentrations: C. albicans; for MIC: Candida albicans, pH 5.5, C. albicans, read-out: Minimum Inhibitory Concentrations
Protocol: as §1, §2
(§6) The two species, C. albicans and C. tropicalis, were maintained on Sabouraud-Dextrose Agar (Oxoid CM41) and cultures for the preparation of the inoculum were incubated on this agar at 37° C. for 48 hours. 4.5 Ml volumes of citric acid-phosphate buffer pH 5.5 plus Yeast-Nitrogen Base (Difco 0392-15) were then inoculated from the agar cultures and incubated at 37° C. for 48 hours. 0.1 Ml aliquots of these cultures were then added to 100 ml volumes of sterile physiological saline to give the final inocula.
(§7) (b) For the tests on each of the C. albicans, C. tropicalis and C. neoformans strains and each of the test and reference compounds, a series of 8 tubes containing 4.5 ml volumes of citric acid-phosphate buffer pH 5.5 plus Yeast-Nitrogen Base (Difco 0392-15) were prepared. To 7 of these were added 0.5 ml volumes of the final solutions of the test compounds, giving final concentrations in the broths of 100, 50, 10, 5, 1.0, 0.5 and 0.1 μg/ml. To the eighth tube in each series was added 0.5 ml of the solvent used and diluted as for the preparation of the 1000 μg/ml solution of the compound. This tube was used as the growth control. The tubes were then inoculated with 0.1 ml aliquots of the inocula prepared as in "(b) Fungi" above. The tubes inoculated with the C. albicans and C. tropicalis were inoculated at 37° C. for 72 hours and the tubes inoculated with the C. neoformans straim were incubated at 30° C. for 72 hours. […] The tubes were then examined for evidence of growth as shown by turbidity of the medium and the lowest concentration of the test compound which prevented fungal growth was recorded as the Minimal Inhibitory Concentration. This test procedure was carried out on two separate days.

C. tropicalis = assay: as above; format: cell-based, Candida tropicalis NCPF 3111; conditions: pH 5.5, 37° C., 72 hours; for Minimum Inhibitory Concentrations: C. tropicalis; for MIC: Candida tropicalis, pH 5.5, C. tropicalis, read-out: Minimum Inhibitory Concentrations
Protocol: as §1, §2, §6, §7

A. corymbifera = assay: Antifungal activity: Minimum Inhibitory Concentration; format: cell-based, Absidia corymbifera NCPF 2001; conditions: A. corymbifera, 27° C., one week; for MIC: Lichtheimia corymbifera, read-out: Minimum Inhibitory Concentration
Protocol: as §1, §2
A. corymbifera NCPF 2001
(§8) The A. corymbifera, A. fumigatus, S. schenkii, T. rubrum, T. mentagrophytes, M. canis and P. verrucosa strains were all maintained on Sabouraud-Dextrose Agar (Oxoid CM 41) by incubating for 14 days at 27° C. To prepare the inocula 30 ml volumes of Sabouraud-Liquid medium (Oxoid CM 147) were inoculated from the agar cultures and incubated at 27° C. until heavy uniform growth resulted. The mycelial growth was then broken up by shaking with glass beads.
(§9) 1 Ml aliquots were removed from each of the cultures for the purpose of making viable counts and the cultures were then held at 4° C. The viable counts were made by preparing serial ten-fold dilutions of the cultures in sterile physiological saline and spreading on plates of Sabouraud-Dextrose Agar (Oxoid CM 41) which were then incubated at 27° C. for 14 days. When the viable counts had confirmed that each of the inocula contained approximately 10^6 colony forming units (C.F.U.) per ml the cultures were withdrawn from the refrigerator and used as the inocula for the tests.
(§10) (c) For the tests on each of the remaining seven strains and each of the test and reference compounds, a series of 8 tubes containing 4.5 ml volumes of Sabouraud-Liquid Medium (Oxoid CM 147) were prepared. To 7 of these were added 0.5 ml volumes of the final solutions of the test compounds, giving final concentrations in the broths of 100, 50, 10, 5, 1.0, 0.5 and 0.1 μg/ml. To the eighth tube in each series was added 0.5 ml of the solvent used and diluted as for the preparation of the 500 μg/ml solution of the compound. This tube was used as a growth control. The tubes were then inoculated with 0.1 ml aliquots of the inocula prepared as in "(b) Fungi" above. The tubes were then incubated at 27° C. with continuous shaking for a period of one week. The tubes were then examined for evidence of growth as shown by the presence of mycelial growth in the medium and the lowest concentration of the test compound which prevented fungal growth was recorded as the Minimal Inhibitory Concentration. This test procedure was carried out on two separate days.

A. fumigatus = assay: as above; format: cell-based, Aspergillus fimigatus (A. fumigatus) NCPF 2140; conditions: A. fumigatus, 27° C., one week; for MIC: Aspergillus fumigatus, read-out: Minimum Inhibitory Concentration
Protocol: as §1, §2, §8, §9, §10

M. canis = assay: as above; format: cell-based, Microsporum canis NCPF 351; conditions: M. canis, 27° C., one week; for MIC: Microsporum canis, read-out: Minimum Inhibitory Concentration
Protocol: as §1, §2, §8, §9, §10

Molecule	MIC (S. aureus; Day 1, 37° C.)	MIC (S. aureus; Day 2, 37° C.)	MIC (E. coli; Day 1, 37° C.)	MIC (E. coli; Day 2, 37° C.)	MIC (C. albicans; Day 1)	MIC (C. albicans; Day 2)	MIC (C. tropicalis; Day 1)	MIC (C. tropicalis; Day 2)	MIC (A. corymbifera; Day 1)	MIC (A. corymbifera; Day 2)	MIC (A. fumigatus; Day 1)	MIC (A. fumigatus; Day 2)	MIC (M. canis; Day 1)	MIC (M. canis; Day 2)	further results
2,3(5)-dimethyl-1-dodecyl-pyrazolium methosulfate [Example 8-A]	–	–	–	–	–	–	–	–	–	–	–	–	–	–	Minimum Inhibitory Concentration (S. aureus; Day 1, 37° C.): 1 µg/mL; Minimum Inhibitory Concentration (S. aureus; Day 2, 37° C.): 0.5 µg/mL; Minimum Inhibitory Concentration (E. coli; Day 1, 37° C.): 50 µg/mL; Minimum Inhibitory Concentration (E. coli; Day 2, 37° C.): 50 µg/mL; Minimum Inhibitory Concentrations (C. albicans; Day 1): 10 µg/mL; Minimum Inhibitory Concentrations (C. albicans; Day 2): 50 µg/mL; Minimum Inhibitory Concentrations (C. tropicalis; Day 1): 5 µg/mL; Minimum Inhibitory Concentrations (C. tropicalis; Day 2): 5 µg/mL; Minimum Inhibitory Concentration (A. corymbifera; Day 1): 100 µg/mL; Minimum Inhibitory Concentration (A. corymbifera; Day 2): 100 µg/mL; Minimum Inhibitory Concentration (A. fumigatus; Day 1): 100 µg/mL; Minimum Inhibitory Concentration (A. fumigatus; Day 2): 100 µg/mL; Minimum Inhibitory Concentration (M. canis; Day 1): 5 µg/mL; Minimum Inhibitory Concentration (M. canis; Day 2): 1 µg/mL
2,3(5)-dimethyl-1-hexadecyl-pyrazolium methosulfate [Example 9]	–	–	–	–	–	–	–	–	–	–	–	–	–	–	Minimum Inhibitory Concentration (S. aureus; Day 1, 37° C.): 0.5 µg/mL; Minimum Inhibitory Concentration (S. aureus; Day 2, 37° C.): 0.5 µg/mL; Minimum Inhibitory Concentration (E. coli; Day 1, 37° C.): 50 µg/mL; Minimum Inhibitory Concentration (E. coli; Day 2, 37° C.): 10 µg/mL; Minimum Inhibitory Concentrations (C. albicans; Day 1): 5 µg/mL; Minimum Inhibitory Concentrations (C. albicans; Day 2): 10 µg/mL; Minimum Inhibitory Concentrations (C. tropicalis; Day 1): 5 µg/mL; Minimum Inhibitory Concentrations (C. tropicalis; Day 2): 1 µg/mL; Minimum Inhibitory Concentration (A. corymbifera; Day 1): 10 µg/mL; Minimum Inhibitory Concentration (A. corymbifera; Day 2): 10 µg/mL; Minimum Inhibitory Concentration (A. fumigatus; Day 1): 5 µg/mL; Minimum Inhibitory Concentration (A. fumigatus; Day 2): 10 µg/mL; Minimum Inhibitory Concentration (M. canis; Day 1): 5 µg/mL; Minimum Inhibitory Concentration (M. canis; Day 2): 5 µg/mL
CCCCCCCCCCCCn1c(C)cc(C)[n+]1C [Example 1, 1-dodecyl-2,3,5-trimethyl-pyrazolium methosulfate]	5 µg/mL	5 µg/mL	50 µg/mL	100 µg/mL	10 µg/mL	50 µg/mL	5 µg/mL	5 µg/mL	> 100 µg/mL	> 100 µg/mL	100 µg/mL	> 100 µg/mL	5 µg/mL	10 µg/mL	–
CCCCCCCCCCCCCCCCn1c(C)cc(C)[n+]1C [Example 2, 1-hexadecyl-2,3,5-trimethyl-pyrazolium methosulfate]	0.5 µg/mL	0.5 µg/mL	10 µg/mL	5 µg/mL	1 µg/mL	1 µg/mL	1 µg/mL	0.5 µg/mL	50 µg/mL	50 µg/mL	10 µg/mL	5 µg/mL	10 µg/mL	5 µg/mL	–
CCCCCCCCCCCCCCCCn1ccc[n+]1C [Example 3-D, 1-hexadecyl-2-methyl-pyrazolium methosulfate]	0.5 µg/mL	0.5 µg/mL	10 µg/mL	5 µg/mL	1 µg/mL	1 µg/mL	0.5 µg/mL	0.5 µg/mL	10 µg/mL	5 µg/mL	50 µg/mL	10 µg/mL	5 µg/mL	5 µg/mL	–
CCCCCCCCCCCCn1ccc[n+]1C [Example 3-E, 1-dodecyl-2-methy-pyrazolium methosulfate]	1 µg/mL	1 µg/mL	50 µg/mL	50 µg/mL	50 µg/mL	50 µg/mL	5 µg/mL	1 µg/mL	100 µg/mL	100 µg/mL	50 µg/mL	10 µg/mL	10 µg/mL	10 µg/mL	–
CCCCCCCCCCCCCCn1ccc[n+]1C [Example 3-G, 2-methyl-1-tetradecyl-pyrazolium methosulfate]	0.5 µg/mL	0.5 µg/mL	10 µg/mL	10 µg/mL	5 µg/mL	5 µg/mL	0.5 µg/mL	0.5 µg/mL	10 µg/mL	10 µg/mL	50 µg/mL	50 µg/mL	10 µg/mL	5 µg/mL	–
CCCCCCCCCCCC[n+]1c(C)cc(C)n1Cc1ccc(Cl)cc1Cl.[Br-] [Example 6-B, 2-(2,4-dichlorobenzyl)-3,5-dimethyl-1-dodecyl-pyrazolium bromide]	0.5 µg/mL	0.5 µg/mL	10 µg/mL	5 µg/mL	5 µg/mL	5 µg/mL	1 µg/mL	1 µg/mL	10 µg/mL	10 µg/mL	5 µg/mL	5 µg/mL	5 µg/mL	5 µg/mL	–
